# Results published in US20100021895A1, “Vectors for Inducing Homozygous Mutations and Methods of Using Same” (priority 2006, published 2010).
# Tested on: mouse embryonic stem cell clones, each containing a neomycin resistance gene (Neo) inserted by the GTR1.3 gene trap retrovirus
# Assay: Carcinogen-induced LOH: frequency of colony formation in 2.0 mg/ml G418
# Type: cell-based
# Settings: for fold increase of frequency of colony formation: 2 mg/ml G418 0.5 mM MNU
# Procedure: Carcinogen-induced LOH was measured in a panel of 53 mouse embryonic stem cell clones, each containing a neomycin resistance gene (Neo) inserted into a different cellular gene (FIG. 9) by the GTR1.3 gene trap retrovirus. Gene entrapment by GTR1.3 involves selection for inserted Neo sequences that can splice to the 3′ ends of cellular genes (Lin et al.,). The disrupted genes were identified by sequencing Neo-gene fusion transcripts and were localized on the mouse genome. Previous studies have shown that cells homozygous for GTR1.3-induced mutations can be selected from heterozygous cells simply by selecting for resistance to higher concentrations of G418, a method first shown to select for homozygous mutations induced by gene targeting (15). Mitotic recombination appears to be the preferred mechanism of spontaneous LOH involving Neo genes inserted in ES cells (17) and LOH involving other genes and cell types in vivo (12, 13). LOH doubles the number of Neo genes per cell and thus allows moderately resistant cells to acquire resistance to higher concentrations of G418. The frequencies of spontaneous LOH measured at the 53 different sites ranged from 1.3×10^−5 to 1.2×10^−4 (Table 3), similar to those reported for other inserted neomycin resistance genes (15, 17) in ES cells and for loci such as TK and APRT in other cell types (12, 13).
# A variety of chemical agents were tested for their ability to enhance the frequencies at which mutant cells survive in 2.0 mg/ml G418. Methyl-nitrosurea (MNU) is an alkylating agent that produces a variety of mono-methylated DNA adducts, hydroxyurea (HU) stalls DNA replication complexes, doxorubicin interferes with DNA synthesis, methothrexate is a competitive inhibitor of dihydrofolate reductase but is not genotoxic, diepoxybutane and mitomycin C induce inter-strand DNA crosslinks, UV irradiation causes intra- and inter-strand pyrimidine dimmers, and ethidium bromide intercalates between DNA strands to damage DNA (For additional information about these agents see http://toxnet.nlm.nih.gov and http://lisntweb.swan.ac.uk/cmgt/index.htm). […] The fold-increase for MNU and HU ranged from 39-123 and 18-68, respectively (Table 3). The optimal concentrations of each agent to stimulate colony formation with minimal toxicity (<5% loss of cell viability) were determined in advance (FIG. 13). […] Each of these agents was tested two or more times on at least 25 entrapment lines.
# Serially diluted cells were plated onto 150 mm plates containing drug-free media and allowed to attach overnight. Unattached cells were removed and media containing the indicated concentrations of methyl-nitrosourea, hydroxyurea, ethidium bromide, doxorubicin, methotrexate, diepoxybutane, or mitomycin C was put onto cells for 4 hours (or cells were exposed to ultraviolet light in the absence of media and allowed to recover in drug-free media for 4 hours). Cells were then rinsed twice with drug-free media and selection media containing 0.0, 0.3, or 2.0 mg/ml G418 was put onto cells. After 12 days of selection, the number of colonies surviving was counted and the frequency of colony formation was determined by dividing the number of colonies obtained from 2.0 mg/ml G418 selection to that obtained from parallel experiments with 0.3 mg/ml G418 selection. TK gene loss was assessed following selection in media containing 2 μg/ml gancyclovir.
# Table 3. The frequency of colony formation in high concentrations of G418. The frequency of colony formation is listed for all 53 clones examined. Frequency was determined by dividing the number of colonies surviving 2.0 mg/ml G418 selection to the number surviving parallel experiments with 0.3 mg/ml G418 selection, and is the average of at least 3 independent experiments for each clone. Standard deviations, which ranged from 5 to 70% of the mean values, have been omitted for clarity. […]
smiles,measurement,setting,value
"CN(N=O)C(N)=O [MNU, methyl-nitrosourea]",number of colonies surviving in high G418,0.5 mM MNU or 0.25 mM HU (FIG. 10),dramatically increased
same,"fold-increase of colonies surviving in high G418, range over clones","0.5 mM MNU, Table 3 clones",39-123 fold
same,fold increase of frequency of colony formation,clone b2p1-a5 (12C3),(+61-fold)
same,fold increase of frequency of colony formation,clone b2p1-a9 (2H1),(+53-fold)
same,fold increase of frequency of colony formation,clone b2p1-b4 (9E1),(+53-fold)
same,fold increase of frequency of colony formation,clone b2p1-b9 (4B1),(+59-fold)
same,fold increase of frequency of colony formation,clone b2p1-c6 (19A),(+39-fold)
same,fold increase of frequency of colony formation,clone b2p1-d3 (19C1),(+41-fold)
same,fold increase of frequency of colony formation,clone b2p1-d8 (4D2.3),(+52-fold)
same,fold increase of frequency of colony formation,clone b2p1-d9 (7E3),(+75-fold)
same,fold increase of frequency of colony formation,clone b2p1-d10 (9A1),(+76-fold)
same,fold increase of frequency of colony formation,clone b2p1-e3 (4D2.3),(+54-fold)
same,fold increase of frequency of colony formation,clone b2p1-e10 (19C1),(+54-fold)
same,fold increase of frequency of colony formation,clone b2p1-f3 (17E1.3),(+51-fold)
same,fold increase of frequency of colony formation,clone b2p1-f10 (3F2.1),(+91-fold)
same,fold increase of frequency of colony formation,clone b2p1-f12 (1H5),(+77-fold)
same,fold increase of frequency of colony formation,clone b2p1-h1 (7A2),(+63-fold)
same,fold increase of frequency of colony formation,clone b2p1-h5 (1H5),(+75-fold)
same,fold increase of frequency of colony formation,clone b2p1-h8 (6A3.3),(+68-fold)
same,fold increase of frequency of colony formation,clone b3p1-h1 (18E2),(+55-fold)
same,fold increase of frequency of colony formation,clone b3p3-a4 (4A5),(+78-fold)
same,fold increase of frequency of colony formation,clone b3p3-a9 (4A5),(+49-fold)
same,fold increase of frequency of colony formation,clone b3p3-b6 (3F1),(+60-fold)
same,fold increase of frequency of colony formation,clone b3p3-c8 (14A3),(+73-fold)
same,fold increase of frequency of colony formation,clone b3p3-c12 (5G2),(+29-fold)
same,fold increase of frequency of colony formation,clone b3p3-d4 (1C3),(+43-fold)
same,fold increase of frequency of colony formation,clone b3p3-d8 (1C2),(+123-fold)
same,fold increase of frequency of colony formation,clone b3p3-d9 (4E2),(+89-fold)
same,fold increase of frequency of colony formation,clone b3p3-g6 (10C2),(+59-fold)
same,fold increase of frequency of colony formation,clone b3p3-g10 (4E1),(+58-fold)
same,fold increase of frequency of colony formation,clone b3p3-h2 (19C1),(+73-fold)
same,fold increase of frequency of colony formation,clone b3p3-h4 (5E2),(+70-fold)
same,fold increase of frequency of colony formation,clone b3p3-h8 (19A),(+105-fold)
same,fold increase of frequency of colony formation,clone b3p4-a1 (4A4),(+69-fold)
same,fold increase of frequency of colony formation,clone b3p4-a5 (3B),(+47-fold)
same,fold increase of frequency of colony formation,clone b3p4-b1 (3A2),(+45-fold)
same,fold increase of frequency of colony formation,clone b3p4-b2 (11B1.3),(+54-fold)
same,fold increase of frequency of colony formation,clone b3p4-b8 (4C6),(+63-fold)
same,fold increase of frequency of colony formation,clone b3p4-b12 (3A1),(+52-fold)
same,fold increase of frequency of colony formation,clone b3p4-c1 (17B3),(+69-fold)
same,fold increase of frequency of colony formation,clone b3p4-c2 (8C3),(+76-fold)
same,fold increase of frequency of colony formation,clone b3p4-c9 (15F2),(+39-fold)
same,fold increase of frequency of colony formation,clone b3p4-c12 (17E2),(+74-fold)
same,fold increase of frequency of colony formation,clone b3p4-d10 (14E5),(+88-fold)
same,fold increase of frequency of colony formation,clone b3p4-d12 (1C3),(+82-fold)
same,fold increase of frequency of colony formation,clone b3p4-e1 (2G3),(+65-fold)
same,fold increase of frequency of colony formation,clone b3p4-e3 (15D3),(+73-fold)
same,fold increase of frequency of colony formation,clone b3p4-e7 (12C1),(+43-fold)
same,fold increase of frequency of colony formation,clone b3p4-f2 (4E1),(+55-fold)
same,fold increase of frequency of colony formation,clone b3p4-f6 (7E3),(+48-fold)
same,fold increase of frequency of colony formation,clone b3p4-f10 (8A4),(+81-fold)
same,fold increase of frequency of colony formation,clone b3p4-g3 (1C3),(+81-fold)
same,fold increase of frequency of colony formation,clone b3p4-g8 (10C1),(+75-fold)
same,fold increase of frequency of colony formation,clone b3p4-g9 (2C2),(+65-fold)
same,fold increase of frequency of colony formation,clone b3p4-h11 (8A1.1),(+65-fold)
same,survival of mutant ES cells in media containing 2.0 mg/ml G418,"ES cells heterozygous for Xrcc5 entrapment mutation, 4 hours with 0.5 mM methyl-nitrosourea, 0.25 mM hydroxyurea or 100 ng/ml diepoxybutane",enhances the survival
same,overall extent of LOH induced,single exposure to non-toxic levels,~1 % of the genome
